Structures can show the parent of a compound that is named as a salt.
How the values were obtained:
[1] = Diameter and PDI from DLS measurements of mRNA nanoparticles with lipid amines; format: physicochemical
In short: (§1)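 Ionizable lipid nanoparticles (IL1:DSPC:cholesterol:PEG-DMG-2K) formed by vortex mixing at pH 4, loaded with luciferase or CFTR mRNA at N:P 4.93, neutralized with TRIS pH 8.12, then modified with lipid amine SA50 at pH 7.5. Particle diameter and PDI read by DLS; mRNA encapsulation by Ribogreen assay.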

[2] = Encapsulation of mRNA nanoparticles with lipid amines using Ribogreen assay; format: physicochemical
In short: as §1

[3] = test system: HeLa cells; assay: Luciferase Protein Expression Assay in HeLa Cells; format: cell-based, Human; settings: LNPs encapsulating Luciferase mRNA, 25 ng per well, N=4 wells; 5 h serum-free then 24 h; ONE-Glo
In short: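 HeLa cells received LNPs carrying luciferase mRNA (25 ng per well) or PBS in serum-free MEM for 5 h, then complete MEM for a further 24 h. Luciferase then read by ONE-Glo luminescence after lysis and reported as average RLU of 4 replicate wells.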

[4] = test system: HeLa cells; assay: CFTR Protein Expression Assay in HeLa Cells; format: cell-based, Human; settings: LNPs encapsulating CFTR mRNA, N=4 wells; 5 h serum-free then 24 h; immunofluorescence vs PBS control
In short: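 HeLa cells dosed with CFTR mRNA LNPs (70 mM NaCl final buffer matrix) in serum-free MEM for 5 h, then complete MEM for 24 h. Fixed cells immunostained with anti-CFTR monoclonal and Alexa 488 secondary, imaged confocally; CFTR intensity per cell expressed as fold-change versus PBS buffer control, N=4 wells.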

[5] = CFTR mRNA nanoparticle with lipid amine
[6] = Luciferase mRNA nanoparticle modified with lipid amine

Structure (SMILES) | Diameter (nm) [1, 5] | PDI [1, 5] | Diameter (nm) [1, 6] | PDI [1, 6] | % Encapsulation (Ribogreen) [2, 5] | % Encapsulation (Ribogreen) [2, 6] | Average Relative Light Units ± Standard Deviation [3] | Average fold-change in CFTR signal intensity per cell compared to buffer control ± standard deviation [4]
CC(C)CCC[C@@H](C)[C@H]1CC[C@H]2[C@@H]3CC=C4C[C@@H](SSCCCCC(=O)N(CCCN)CCCCCCCCN)CC[C@]4(C)[C@H]3CC[C@]12C [SA110, N-(8-Aminooctyl)-N-(3-aminopropyl)-5-(((3S,8S,9S,10R,13R,14S,17R)-10,13-dimethyl-17-((R)-6-methylheptan-2-yl)-2,3,4,7,8,9,10,11,12,13,14,15,16,17-tetradecahydro-1H-cyclopenta[a]phenanthren-3-yl)disulfaneyl)pentanamide dihydrochloride] | 84.2 nm | 0.15 | 70 nm | 0.14 | 98.8% | 98.8% | 14227 ± 2513.9 Relative Light Units | 4.0 ± 0.2 fold-change
CC[C@H](CC[C@@H](C)[C@H]1CC[C@H]2[C@@H]3CC=C4C[C@@H](OC(=O)N(CCCCNCCC(C)(C)N)CCC(C)(C)N)CC[C@]4(C)[C@H]3CC[C@]12C)C(C)C [SA114, (3S,8S,9S,10R,13R,14S,17R)-17-((2R,5R)-5-ethyl-6-methylheptan-2-yl)-10,13-dimethyl-2,3,4,7,8,9,10,11,12,13,14,15,16,17-tetradecahydro-1H-cyclopenta[a]phenanthren-3-yl (3-amino-3-methylbutyl)(4-((3-amino-3-methylbutyl)amino)butyl)carbamate trihydrochloride] | 85.9 nm | 0.13 | 75 nm | 0.18 | 98.5% | 99.7% | 22594.3 ± 9128.4 Relative Light Units | 6.3 ± 1.3 fold-change
CC[C@H](CC[C@@H](C)[C@H]1CC[C@H]2[C@@H]3CC=C4C[C@@H](OC(=O)CCCC(=O)N(CCCN)CCCCNCCCN)CC[C@]4(C)[C@H]3CC[C@]12C)C(C)C [SA117, (3S,8S,9S,10R,13R,14S,17R)-17-((2R,5R)-5-ethyl-6-methylheptan-2-yl)-10,13-dimethyl-2,3,4,7,8,9,10,11,12,13,14,15,16,17-tetradecahydro-1H-cyclopenta[a]phenanthren-3-yl 5-((3-aminopropyl)(4-((3-aminopropyl)amino)butyl)amino)-5-oxopentanoate trihydrochloride] | 94.7 nm | 0.17 | 77 nm | 0.28 | 98.6% | 99.7% | 10134.1 ± 3860.2 Relative Light Units | 4.9 ± 1.2 fold-change
CC[C@H](CC[C@@H](C)[C@H]1CC[C@H]2[C@@H]3CC=C4C[C@@H](OC(=O)[C@H](C)N(CCCN)CCCCNCCCN)CC[C@]4(C)[C@H]3CC[C@]12C)C(C)C [SA118, (3S,8S,9S,10R,13R,14S,17R)-17-((2R,5R)-5-ethyl-6-methylheptan-2-yl)-10,13-dimethyl-2,3,4,7,8,9,10,11,12,13,14,15,16,17-tetradecahydro-1H-cyclopenta[a]phenanthren-3-yl N-(3-aminopropyl)-N-(4-((3-aminopropyl)amino)butyl)alaninate tetrahydrochloride] | 89.9 nm | 0.16 | 74 nm | 0.19 | 97.9% | 99.7% | 12261.7 ± 4328.5 Relative Light Units | 9.7 ± 1.2 fold-change
CC[C@H](CC[C@@H](C)[C@H]1CC[C@H]2[C@@H]3CC=C4C[C@@H](OC(=O)CN(CCCN)CCCCNCCCN)CC[C@]4(C)[C@H]3CC[C@]12C)C(C)C [SA119, (3S,8S,9S,10R,13R,14S,17R)-17-((2R,5R)-5-ethyl-6-methylheptan-2-yl)-10,13-dimethyl-2,3,4,7,8,9,10,11,12,13,14,15,16,17-tetradecahydro-1H-cyclopenta[a]phenanthren-3-yl N-(3-aminopropyl)-N-(4-((3-aminopropyl)amino)butyl)glycinate tetrahydrochloride] | 88.3 nm | 0.15 | 78 nm | 0.18 | 98.9% | 99.4% | 18979.6 ± 7864.8 Relative Light Units | 5.7 ± 1.0 fold-change
CC[C@H](CC[C@@H](C)[C@H]1CC[C@H]2[C@@H]3CC=C4C[C@@H](OC(=O)N(CCCN)CCCCN)CC[C@]4(C)[C@H]3CC[C@]12C)C(C)C [SA120, (3S,8S,9S,10R,13R,14S,17R)-17-((2R,5R)-5-Ethyl-6-methylheptan-2-yl)-10,13-dimethyl-2,3,4,7,8,9,10,11,12,13,14,15,16,17-tetradecahydro-1H-cyclopenta[a]phenanthren-3-yl (4-aminobutyl)(3-aminopropyl)carbamate dihydrochloride] | 83.6 nm | 0.14 | 76 nm | 0.28 | 97.5% | 99.1% | 34695.5 ± 9492.2 Relative Light Units | 16.8 ± 1.1 fold-change
CC(C)CCC[C@@H](C)[C@H]1CC[C@H]2[C@@H]3CC=C4C[C@@H](OC(=O)CN(CCCCCCCCN)C(=O)CCCCN)CC[C@]4(C)[C@H]3CC[C@]12C [SA122, (3S,8S,9S,10R,13R,14S,17R)-10,13-Dimethyl-17-((R)-6-methylheptan-2-yl)-2,3,4,7,8,9,10,11,12,13,14,15,16,17-tetradecahydro-1H-cyclopenta[a]phenanthren-3-yl N-(8-aminooctyl)-N-(5-aminopentanoyl)glycinate dihydrochloride] | 83.5 nm | 0.13 | 75 nm | 0.15 | 98.6% | 99.4% | 29605.6 ± 6326.9 Relative Light Units | 14.8 ± 1.1 fold-change
CC(C)CCC[C@@H](C)[C@H]1CC[C@H]2[C@@H]3CC=C4C[C@@H](OC(=O)CN(CCCCCCCCN)C(=O)CCCCCN)CC[C@]4(C)[C@H]3CC[C@]12C [SA123, (3S,8S,9S,10R,13R,14S,17R)-10,13-dimethyl-17-((R)-6-methylheptan-2-yl)-2,3,4,7,8,9,10,11,12,13,14,15,16,17-tetradecahydro-1H-cyclopenta[a]phenanthren-3-yl N-(6-aminohexanoyl)-N-(8-aminooctyl)glycinate dihydrochloride] | 83.2 nm | 0.12 | 73 nm | 0.14 | 99.0% | 99.5% | 28520.5 ± 6429.4 Relative Light Units | 14.7 ± 1.0 fold-change
CC(C)CCC[C@@H](C)[C@H]1CC[C@H]2[C@@H]3CC=C4C[C@@H](OC(=O)N(CCCCNCCC5(N)CC5)CCC5(N)CC5)CC[C@]4(C)[C@H]3CC[C@]12C [SA124, (3S,8S,9S,10R,13R,14S,17R)-10,13-dimethyl-17-((R)-6-methylheptan-2-yl)-2,3,4,7,8,9,10,11,12,13,14,15,16,17-tetradecahydro-1H-cyclopenta[a]phenanthren-3-yl (2-(1-aminocyclopropyl)ethyl)(4-((2-(1-aminocyclopropyl)ethyl)amino)butyl)carbamate trihydrochloride] | 72.0 nm | 0.10 | 74 nm | 0.14 | 98.3% | 99.8% | 45805.9 ± 5630.6 Relative Light Units | 15.0 ± 1.2 fold-change
CC(C)CCC[C@@H](C)[C@H]1CC[C@H]2[C@@H]3CC=C4C[C@@H](OC(=O)CCCC(=O)N(CCCCNCCC(C)N)CCC(C)N)CC[C@]4(C)[C@H]3CC[C@]12C.Cl.Cl.Cl (stereo partly drawn) [SA125, (3S,8S,9S,10R,13R,14S,17R)-10,13-dimethyl-17-((R)-6-methylheptan-2-yl)-2,3,4,7,8,9,10,11,12,13,14,15,16,17-tetradecahydro-1H-cyclopenta[a]phenanthren-3-yl 5-((3-aminobutyl)(4-((3-aminobutyl)amino)butyl)amino)-5-oxopentanoate trihydrochloride] | 75.0 nm | 0.15 | 77 nm | 0.19 | 99.0% | 99.7% | 15625.8 ± 3399.4 Relative Light Units | 14.2 ± 0.9 fold-change

From patent publication US20260109732A1, “LIPID AMINES” (ModernaTX, Inc., priority 2021, published 2026)
